The record followed here is PMC12064818, “A general assay platform to study protein pharmacology using ligand-dependent structural dynamics” (Nature Communications, 2025).

The test deals with T1, FLuc-C-HiBiT (Photinus pyralis, UniProt P08659).
T1 construct: firefly luciferase with C-terminal HiBiT tag, E. coli expressed
The test can be described thus: biochemical. As to conditions: enzyme activity, 10 uM ATP; read-out: IC50 or SDR50 (mM) / FLuc E.

T1 sequence (P08659 whole entry, looked up): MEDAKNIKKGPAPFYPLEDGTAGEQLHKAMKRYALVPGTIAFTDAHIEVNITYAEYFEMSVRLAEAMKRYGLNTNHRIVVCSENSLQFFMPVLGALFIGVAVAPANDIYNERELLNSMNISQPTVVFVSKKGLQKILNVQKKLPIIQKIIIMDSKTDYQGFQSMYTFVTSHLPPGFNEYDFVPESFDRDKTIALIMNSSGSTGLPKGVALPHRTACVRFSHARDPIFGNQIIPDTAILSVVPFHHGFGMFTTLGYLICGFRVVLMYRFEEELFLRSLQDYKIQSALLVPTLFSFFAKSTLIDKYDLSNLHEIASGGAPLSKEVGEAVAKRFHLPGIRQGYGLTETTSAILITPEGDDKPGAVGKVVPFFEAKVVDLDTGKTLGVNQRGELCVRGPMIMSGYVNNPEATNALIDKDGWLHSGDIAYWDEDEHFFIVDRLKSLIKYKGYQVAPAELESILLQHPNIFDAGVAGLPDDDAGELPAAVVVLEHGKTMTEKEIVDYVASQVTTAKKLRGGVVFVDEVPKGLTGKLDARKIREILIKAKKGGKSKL

Regarding `CN1CCN(c2ccc(-c3cc4c(ccn4C)c(C(=O)NCC4CCC(=O)N4)n3)cc2)CC1` (stereo not drawn) [NCGC00411731-01], the IC50 was determined as 0.0157 mM.

Turning to `Cc1ncccc1C(=O)N1CC(Oc2ccc(-c3nc(-c4ccccc4)no3)cc2)C1` [NCGC00441179-01], the IC50 stood at 0.00624 mM.

On to `COc1ccc2cc(C3CN(C(=O)c4cccc(CO)n4)CCO3)ccc2c1` (stereo not drawn) [NCGC00432736-01], for which the IC50 is 0.0111 mM.

Consider `Cc1cccc(N2CCN(C(=O)CSCc3ccc(F)cc3)CC2)c1C` [NCGC00140140-01], for which the IC50 is over 0.03 mM.

As for `CN1CCN(c2ccc(-c3cccc(N)c3)nn2)CC1` [NCGC00432705-01], the IC50 was found to be 0.00624 mM.

With `COc1ccc(NC(=O)Nc2cccc(-c3ccc(N4CCCCC4)nn3)c2)c(OC)c1` [NCGC00427636-01], the IC50 was 0.000989 mM.

In the case of `N#C/C(=C\c1ccc(-c2cc(Cl)ccc2Cl)o1)C(=O)Nc1ccccc1C(=O)O` [NCGC00098944-01], the IC50 worked out at 0.0176 mM.

As for `c1ccc(CCCc2noc(-c3ccc(NCc4ccccn4)nc3)n2)cc1` [NCGC00440648-01], the IC50 was over 0.03 mM.

On to `Cc1ccc(C2Cn3nnc(C(=O)N4CCC(C(=O)NCc5ccccn5)CC4)c3CO2)cc1` (stereo not drawn) [NCGC00449551-01], for which the IC50 is 0.0111 mM.

As to `Cc1ccc(C2Cn3nnc(C(=O)N4CCC(C(=O)Nc5ccccc5)CC4)c3CO2)cc1` (stereo not drawn) [NCGC00449585-01], the IC50 was found to be 0.0111 mM.

For `NC(=O)[C@@H]1CCCN1C(=O)c1ccc2oc(-c3cccc(F)c3)nc2c1` [NCGC00444081-01], the IC50 was over 0.03 mM.

On to `Cn1nc(-c2ccc3c(c2)OCCO3)nc1N1CCCCC1` [NCGC00447616-01], for which the IC50 came to 0.00989 mM.

Turning to `Cc1ccc(C)c(N2CCN(C(=O)C3CCN(c4nc(-c5ccc(C(C)C)cc5)no4)CC3)CC2)c1` [NCGC00134060-01], the IC50 came out at 0.0111 mM.

Turning to `Cc1ccc(-c2cc3c(=O)n(CCNC(=O)c4ccco4)ccn3n2)c(C)c1` [NCGC00456979-01], the IC50 worked out at 0.00989 mM.

Consider `Cc1ccc(Cl)cc1-n1ncc2c(N3CCC(C)CC3)ncnc21` [NCGC00138926-01], for which the IC50 is over 0.03 mM.

In the case of `Cc1noc(-c2cccn3c(CNC(=O)c4ccc(C(C)(C)C)cc4)nnc23)n1` [NCGC00457512-01], the IC50 was determined as 0.00989 mM.

In the case of `CCOc1cc(C(=O)Nc2ccc(-c3nc4ccccc4s3)cc2Cl)cc(OCC)c1OCC` [NCGC00137812-01], the IC50 was 0.0124 mM.

Regarding `CN1C[C@@H](N[S+](=O)([O-])c2ccc(C#N)cc2)C[C@H]1c1nc(-c2ccc(Cl)cc2)no1` [NCGC00400957-01], the IC50 was determined as 0.0111 mM.

Regarding `COc1ccc(Nc2nc(-c3cccc(OC)c3)no2)cc1` [NCGC00422374-01], the IC50 stood at 0.00785 mM.

`CN(CCc1ccccn1)c1ccc(-c2nc(COc3ccccc3)no2)cn1` [NCGC00426301-01]: the IC50 was 0.0111 mM.

On to `Cc1cc(-c2nc3ccccc3s2)ccc1NC(=O)c1cc(Cl)ccc1Cl` [NCGC00102363-01], for which the IC50 is over 0.03 mM.

Turning to `Cc1ccc(-c2cccc(COc3cnc4c(ccn4CC(=O)O)c3)c2)c(C)c1` [NCGC00418282-01], the IC50 was over 0.03 mM.

As for `O=C(NCc1ccoc1)c1ccc2nc(-c3ccc(F)cc3)cn2c1` [NCGC00425034-01], the IC50 was found to be 0.0111 mM.

With `COc1ccccc1C(=O)Nc1ccc(-c2nc3ccccc3s2)c(C)c1` [NCGC00137840-01], the IC50 came out at 0.00989 mM.

Take `COc1ccc(-c2nc3ccccc3s2)cc1NC(C)=O` [NCGC00141118-01]: the IC50 was 0.00624 mM.

On to `COc1ccc(N2CCN(C(=O)c3noc(-c4ccc(C)cc4)n3)CC2)cc1` [NCGC00447127-01], for which the IC50 was found to be 0.00989 mM.

Take `CC(=O)N1CCNc2cc(Nc3ccc(F)cc3)ncc2C1` [NCGC00411083-01]: the IC50 turned out to be 0.0057 mM.

Regarding `COc1ccc(Nc2cc(C(=O)NC3CCC(C)CC3)c3ccccc3n2)cc1OC` (stereo not drawn) [NCGC00108132-01], the IC50 is over 0.03 mM.

Turning to `O=C(NC1CCCN(c2cc(-c3ccc(F)cc3)n[nH]2)C1)c1ccc2ncccc2c1` (stereo not drawn) [NCGC00437580-01], the IC50 was 0.00881 mM.

Regarding `CCn1cc(-c2cc3c(cn2)CN(C)CCN3)cn1` [NCGC00411244-01], the IC50 was 0.0226 mM.

On to `COc1ccc(CN2CC(COc3ccccc3)C3(C2)CN(c2ccccc2)C3)cc1O` (stereo not drawn) [NCGC00415956-01], for which the IC50 was over 0.03 mM.

Take `Cc1ccc(-c2cc3c(=O)n(CCNC(=O)c4ccoc4)ccn3n2)cc1C` [NCGC00457019-01]: the IC50 came out at 0.00989 mM.

With `CCN1c2cc(C(=O)Nc3ccc4c(c3)OCCO4)ccc2C(=O)N2CCCCC21` (stereo not drawn) [NCGC00452503-01], the IC50 came out at 0.00989 mM.

`O=C(c1ccncc1)N1CCC(Oc2ccc(-c3noc(-c4ccccc4)n3)cc2)C1` (stereo not drawn) [NCGC00440993-01]: the IC50 was 0.0124 mM.

On to `C[S+](=O)([O-])CCn1ncc2cc(OCc3cccc(-c4cccc(O)c4)c3)ccc21` [NCGC00418035-01], for which the IC50 stood at 0.0161 mM.

In the case of `Cc1ccc(-c2noc(-c3nc(C(C)C)no3)n2)cc1` [NCGC00450102-01], the IC50 was found to be 0.0111 mM.

With `Cc1ccc(/C=C/c2nc3ccccc3n2S(=O)(=O)c2ccc(Br)cc2)cc1` [NCGC00140607-01], the IC50 was 0.000624 mM.

In the case of `CC(=O)N1CCCN(c2ccc(-c3nc(-c4ccccc4F)no3)cn2)CC1` [NCGC00426241-01], the IC50 came to 0.0157 mM.

As for `CCOc1ccc(-c2cc3c(=O)n(CCNC(=O)c4cccc5[nH]ccc45)ccn3n2)cc1` [NCGC00456956-01], the IC50 worked out at 0.00556 mM.

On to `CCCNC(=O)C1C(c2cccc(NC(=O)c3ccc(C)cc3)c2)OC(=O)N1Cc1ccc(C)cc1` (stereo not drawn) [NCGC00475006-01], for which the IC50 turned out to be 0.00442 mM.

Turning to `O=C(NC1CCCN(c2cc(-c3ccc(Cl)cc3)n[nH]2)C1)c1ccc2ncccc2c1` (stereo not drawn) [NCGC00437446-01], the IC50 amounted to 0.00495 mM.

As for `O=C(c1n[nH]cc1Cl)N1CCOC(Cc2cccc(C(F)(F)F)c2)C1` (stereo not drawn) [NCGC00431816-01], the IC50 is over 0.03 mM.

Take `Cc1nn(-c2ccc(C(C)(C)C)cc2)c(C)c1[C@@H]1C=C[C@@H](NC(=O)c2ccco2)C1` [NCGC00394638-01]: the IC50 turned out to be 0.0202 mM.

For the compound `Cc1nnc(CN(C)c2ccc(-c3nc(-c4cccc(Cl)c4)no3)cn2)o1` [NCGC00427683-01], the IC50 came to 0.00495 mM.

`Cn1ccc2c(C(=O)NCCc3c[nH]cn3)nc(-c3ccc(N4CCOCC4)cc3)cc21` [NCGC00411589-01]: the IC50 was determined as 0.00453 mM.

With `COc1cc2c(cc1-c1ccc(CO)cc1)NC(=O)C21CCN(C)CC1` [NCGC00416803-01], the IC50 was 0.0202 mM.

With `CCCCCc1nn2cc(-c3ccccc3)nc2s1` [NCGC00117458-01], the IC50 was determined as 0.000624 mM.

As for `O=C(c1cc(-c2ccccc2O)on1)N1CCCCC1` [NCGC00105578-01], the IC50 turned out to be 0.00989 mM.

`Cc1ccc2nc(-c3ccc(NC(=O)COc4ccccc4C(C)(C)C)cc3)sc2c1` [NCGC00098265-01]: the IC50 came to 0.014 mM.

Regarding `COc1ccc(-c2cc3c(=O)n(CCNC(=O)c4cccc(N(C)C)c4)ccn3n2)cc1` [NCGC00456929-01], the IC50 is 0.00351 mM.

Turning to `CCn1cnnc1CC1CCN(C(=O)c2cc(-c3ccc(C)c(C)c3)nc3ccccc23)CC1` [NCGC00456253-01], the IC50 is 0.00279 mM.

Regarding `CSc1ccc(C(=O)Nc2ccc(-c3nc4ccccc4s3)c(O)c2)cc1` [NCGC00134695-01], the IC50 was over 0.03 mM.

Take `O=C(Nc1cccc(-c2ccc(N3CCOCC3)nn2)c1)Nc1ccc2c(c1)CCC2` [NCGC00427612-01]: the IC50 turned out to be 0.00279 mM.

Take `Cc1ccc(NC(=O)N2CCC(CCNC(=O)C3CC3)CC2)cc1F` [NCGC00425057-01]: the IC50 is 0.0111 mM.

In the case of `Cc1cccc(OCCc2noc(C3CN(C(=O)Nc4ccc5c(c4)OCCO5)C3)n2)c1` [NCGC00464383-01], the IC50 came out at 0.007 mM.

Take `c1ccc(-c2noc(-c3ccc(OC4CNC4)cc3)n2)cc1` [NCGC00441173-01]: the IC50 worked out at 0.00279 mM.

Turning to `CCc1ccc(-n2nc(CO)c(C(=O)NC)n2)cc1` [NCGC00117187-01], the IC50 amounted to 0.0176 mM.

Regarding `CCn1cc(-c2ccc(OC)cc2)cc1C(=O)O` [NCGC00432677-01], the IC50 came to 0.014 mM.

For `Cc1ccc2oc(C(=O)Nc3cccc(-c4nc5ccccc5s4)c3)c(C)c2c1` [NCGC00119185-01], the IC50 was found to be 0.00989 mM.

`Nc1nn(-c2ccccc2)nc1C(=O)OCc1ccccc1` [NCGC00102837-01]: the IC50 was over 0.03 mM.

As to `Cc1nc(CN2CCOc3c(O)cc(-c4nc5ccccc5s4)cc3C2)no1` [NCGC00430265-01], the IC50 is over 0.03 mM.

On to `Cc1cc(F)ccc1NC(=O)c1csc2c1CCC(C)C2` (stereo not drawn) [NCGC00112512-01], for which the IC50 was determined as 0.00279 mM.

As for `NC(=O)CC1CCN(c2ncnc3c2cnn3-c2ccccc2)CC1` [NCGC00610672-01], the IC50 was over 0.03 mM.

In the case of `COc1ccc(OCC(=O)Nc2cccc(-c3nc4ccccc4s3)c2C)cc1` [NCGC00118972-01], the IC50 was found to be 0.00785 mM.

`COc1cccc(CNC(=O)N2c3ccccc3CC2c2noc(C3CCOCC3)n2)c1` (stereo not drawn) [NCGC00471511-01]: the IC50 was 0.00989 mM.

On to `CC(=O)N1CCc2ccc(C(=O)NC3CCCCCC3)cc21` [NCGC00430256-01], for which the IC50 turned out to be 0.00624 mM.

`COc1cccc(Nc2nc(-c3ccccc3)no2)c1` [NCGC00422289-01]: the IC50 stood at 0.00624 mM.

In the case of `CCOc1ccc2nc(NC(=O)c3ccccc3)sc2c1` [NCGC00099426-02], the IC50 was determined as 0.000881 mM.

For `Cc1cccc(C(=O)Nc2ccc(-c3nc4ccccc4s3)cc2Cl)c1` [NCGC00137810-01], the IC50 is over 0.03 mM.

Take `Cc1ccccc1-c1cccc(COc2cnc3c(ccn3CC(=O)O)c2)c1` [NCGC00418175-01]: the IC50 was determined as 0.018 mM.

For `COc1cccc(-c2noc(Nc3ccc(OC)c(OC)c3)n2)c1` [NCGC00422366-01], the IC50 came to 0.00394 mM.

Take `COc1cccc(-c2ccc(-c3nc(C4CCOC4)no3)o2)c1` (stereo not drawn) [NCGC00448436-01]: the IC50 amounted to 0.00989 mM.

Regarding `COc1ccc(Br)cc1C(=O)Nc1nc2ccc(F)cc2s1` [NCGC00102907-01], the IC50 is over 0.03 mM.

For `CC(=O)c1cccc(Nc2nn(-c3ccc(OC(F)(F)F)cc3)nc2C(C)=O)c1` [NCGC00116630-01], the IC50 amounted to 0.00442 mM.

As to `Cc1nn(-c2ccc(C(C)(C)C)cc2)c(C)c1[C@@H]1C=C[C@@H](NC(=O)CCCC(=O)O)C1` [NCGC00400254-01], the IC50 turned out to be 0.0202 mM.
